Assay results taken from US12491248B2, “Method for generating immunoregulatory cells in a blood-derived sample” (Therakos Development Limited, priority 2019, dated 2025).

Columns and labels:
B16 melanoma cells = assay: Survival of melanoma-bearing mice treated with anti-PD1; assay type: in vivo; details: combined with anti-PD1, compared to anti-PD1 only
Method: FIG. 7: • (a) Treatment schedule: Mice were injected iv with B16 melanoma cells and afterwards treated with anti-PD1, prednisolone or ECP as indicated. • (b) Survival of mice injected iv with B16 melanoma cells and afterwards treated with anti-PD1, prednisolone or ECP.
To understand if the immunomodulatory effect of ECP was connected to a loss of anti-tumor activity we next treated melanoma bearing mice with anti-PD1 alone or in combination with the glucocorticoid prednisolone or ECP (FIG. 7A). We observed that prednisolone reduced the survival of melanoma-bearing mice compared to the group treated with anti-PD1 only (FIG. 7B).

[1] = system: immune checkpoint inhibitor-related colitis; assay: Immunosuppressive drug treatment of the patient's colitis episodes before ECP; assay type: in vivo, human
Method: (§1) A patient was treated with ipilimumab and nivolumab for metastatic melanoma. […] Colitis was diagnosed based on macroscopic mucosal ulcerations and intraepithelial apoptosis and crypt loss identified in the biopsy (FIG. 1a,b). While dermatitis, thyroiditis and hepatitis resolved after stopping ipilimumab/nivolumab and corticosteroid treatment, the patient experienced three colitis episodes within the next 20 weeks (CTC-AE II-III°). These were treated with corticosteroids (in total 23 weeks prior to ECP), infliximab (2 single doses 18 and 15 weeks prior to ECP) and cyclosporine (14 weeks prior to ECP, FIG. 1a and Table 1).
The patient had their first episode of colitis 20 weeks prior to the start of ECP. At that time point they had been treated for 3 weeks with steroids for their previous immune checkpoint inhibitor-related hepatitis, thyroiditis and dermatitis. The colitis occurred during tapering of the steroids. Therefore, the steroid dose was increased and due to an insufficient response, infliximab 5 mg/kg BW was administered once. […] Upon steroid tapering, the patient experienced their second episode of colitis, 16 weeks prior to begin of ECP. They were treated with an increased dose of methylprednisolone and a second dose of infliximab. The diarrhea was refractory to this therapy and consequently cyclosporine A was added. […] Here, ECP treatment was initiated. […]

[2] = Adverse events of ipilimumab and nivolumab in the metastatic melanoma patient; assay type: in vivo, human; details: after two doses of ipilimumab and nivolumab
Method: as §1

Molecule: C[C@]12C=CC(=O)C=C1CC[C@@H]1[C@@H]2[C@@H](O)C[C@@]2(C)[C@H]1CC[C@]2(O)C(=O)CO [prednisolone]
- survival of melanoma-bearing mice (B16 melanoma cells): reduced

Molecule: infliximab: anti-TNF antibody
- diarrhea, second episode ([1]; increased dose of methylprednisolone and a second dose of infliximab): refractory
- colitis symptoms, first episode ([1]; infliximab 5 mg/kg BW once, added to increased steroid dose): symptoms resolved

Molecule: ipilimumab: antagonistic antibody directed against CTLA4
- immune-related adverse events developed [2]: dermatitis, thyroiditis, hepatitis and colitis

Molecule: nivolumab: antagonistic anti-PD-1 antibody
- immune-related adverse events developed [2]: dermatitis, thyroiditis, hepatitis and colitis
